This note sets out measurements from patent US7618623B2, “Hybrid adeno-retroviral vector for the transfection of cells” (priority 2000, dated 2009).

Data set [1] has as its system HSG cells. Briefly: Cell death on fibronectin-coated poly-L-lactic acid disks (crystal violet staining, cell count). Format: cell-based, human. The note with it: for cell death: cells infected with AdLTR.CMV-tk (MOI of 10). How it is done:
Two-dimensional films of poly-L-lactic acid (Boehringer Ingelheim Inc., Winchester, Va.) were produced by melt processing polymer pellets between sheets of aluminum foil using a Carver press at 350° F. to create disks with diameters of 20-25 mm. The disks were sterilized using y-irradiation for ˜150 min with a dose of 20,000 Gy.
Disks were gently placed in each well of a 6-well tissue culture plate (Becton Dickinson, Franklin Lakes, N.J.) and immersed in phosphate-buffered saline (PBS; GibcoBRL, Grand Island, N.Y.) for 18 hours with 5 μg/ml fibronectin at 37° C. (Aframian et al., Tissue Engin. 6:209, 2000). Thereafter, the coated disks were blocked for 1 hr with bovine serum albumin (Calbiochem-Novabiochem Corp., La Jolla, Calif.) at 37° C. and then gently washed twice with PBS (Aframian et al., op. cit.). Cell suspensions (1×10^5 cells; 2 ml/well) were added in complete culture medium and incubated at 37° C. for an additional 18 hours. Thereafter, the medium was discarded, and 10 MOI of virus diluted in PBS was added for an additional 6 hr. Next, GCV diluted in medium was added, and after an additional 125 hr the disks were washed twice in PBS, then stained with 0.2% crystal violet in 20% ethanol for 20 min (Aframian et al., op. cit). The disks were then rinsed twice with PBS and examined under a light microscope using a 10× objective. Three randomly selected photomicrographs were obtained from each specimen using 200 ASA color slide film (Elite chrome, Kodak, Rochester, N.Y.). The slides were scanned to convert them to digital images and, using Adobe Photoshop®, three 200 μm^2 regions were randomly chosen from each field, and cell number was determined visually.
An artificial salivary gland device will have cells grown as a monolayer on a fibronectin-coated poly-L-lactic acid substratum (Aframian et al., Tissue Engin. 6:209, 2000), rather than on tissue culture plastic. Therefore, the ability of GCV to elicit HSG cell death when the cells were attached to poly-L-lactic acid disks pre-coated with 5 μg/ml of human fibronectin was determined. […] The GCV effect ranged from 40% cell death at 0.5 μM GCV to 95% cell death when the GCV concentration was 50 μM.

The subject of data set [2] is HSG cells. Briefly: Trypan blue staining and manual cell counting on plastic. Type of data set: cell-based, human. The note with it: cells infected with AdLTR.CMV-tk at a MOI of 10; 0.5, 5, 50 μM GCV. The text has this: HSG cells were a generous gift from […].
To determine the surviving cell number under these growth conditions on a plastic substrate following GCV treatment, in separate experiments trypan blue staining was used as well as manual cell counting.

Data set [3] concerns HSG cells. The source says: HSG cells were a generous gift from […]. M. Sato (Tokushima University, Japan) (Shirasuna et al., Cancer 48:745, 1981) and were maintained in vitro as previously described (He et al., Pflugers Arch., 36:416, 1990). For the experiments presented herein, HSG cells were dispersed from semi-confluent plates using a solution of Versene 1:5000 in Hanks' balanced salt solution without calcium and magnesium (BioFluids, Rockville Md.). Cells were then resuspended in fresh media consisting of a 1:1 mixture of Eagle's Minimal Essential Medium, (Dulbecco's Modification) and Ham's F-12 supplemented with 2 mM glutamine (BioFluids), 10% fetal calf serum (Hyclone, Logan, Utah), and 100 units/ml penicillin, 100 μg/ml streptomycin and 2.5 μg/ml fungizone (BioFluids).
Cells were grown in 96-well culture plates at a density of 1×10^4 cells/well. […] Six hours after infection, GCV (Cytovene®, Syntex Laboratories, Inc., Palo Alto Calif.) was added to the media at concentrations of 0.5, 5, or 50 μM. After incubation for different time points, the sensitivity of cells to the GCV prodrug was evaluated using two separate methods, assaying either with the tetrazolium salt of 3-(4,5-dimethylthiazol-2-yl)-2,5-diphenyl […] bromide (MTT assay, Chemicon International Inc., Temecula, Calif.) or direct cell counting after trypan blue staining (Bio-Whittaker, Walkersville, Md.).
To assess the ability of the HSV-tk transgene to function in HSG cells, cell viability was studied on tissue culture plastic using the MTT assay. HSG cells were infected with different vector MOIs, and thereafter incubated with several concentrations of GCV (Candotti et al., Cancer Gene Ther., 7:574, 2000).

Like-named read-outs stand apart in the source and are kept apart here.

Turning to `Nc1nc(O)c2ncn(COC(CO)CO)c2n1` [GCV, ganciclovir], the “appearance of cell monolayers” value in the data set on HSG cells [1] (50 μM GCV alone, no infection) is reported as “appeared normal”. For the same molecule, the “cells remaining on the disk” value in the data set with HSG cells [1] (AdLTR.CMV-tk at a MOI of 10 followed by 50 μM of GCV) was “loss of almost all of the cells”. The cell death is given as 40% in the data set on HSG cells [1] (0.5 μM GCV) and 95% with HSG cells [1] (50 μM GCV). Besides, the “decrease in number of viable cells compared with cells infected with 10 MOI alone” value in the data set with HSG cells [2] is reported as “up to 3 fold”. Also, the “effect on HSG cell growth and viability” value in the data set on HSG cells [3] (GCV doses up to 50 μM, absence of AdLTR.CMV-tk infection) is recorded as “does not affect”. For the same molecule, the “effect of GCV on viability” value is listed as “without effect” with HSG cells [3] (cells infected with AdLTR.CMV-tk at a MOI of 1) and “without effect” in the data set with HSG cells [3] (uninfected cells, 0.5, 5, 50 μM GCV). Further, in the data set with HSG cells [3] (cells infected with AdLTR.CMV-tk at a MOI of 10, all prodrug concentrations (0.5, 5, 50 μM)), the “reduced viability compared to no GCV treatment” value was greater than 50%.
